According to patent US4272437A, “Antibacterial agents, and 4-thio azetidinone intermediates” (priority 1979, dated 1981):
Values after ≈ are worked out from the molar mass of the structure shown. Where two headings read alike, the source gives them in different places.

Assays:
S. aureus A9537 = assay: In vivo protection of mice, lethal infection with S. aureus A9537; settings: Staphylococcus aureus, A9537, im, IM, 2 treatments, read-out: PD50
Description: Representative compounds of the present invention were also tested in vivo in mice and their PD50 (dose of compound in mg/kg required to protect 50% of the treated mice against an otherwise lethal infection of a micro-organism) values determined with respect to the test organisms shown below.

[1] = tested on: Klebsiella species A20468; assay: MIC, tube dilution, Klebsiella species A20468; format: cell-based; settings: Klebsiella species (K. pneumoniae) A20468; overnight 37° C.; read-out: Minimum Inhibitory Concentration (M.I.C.)
Description: (§1) Representative compounds of the present invention were subjected to in vitro antibiotic screening against a variety of microorganisms.

[2] = tested on: Staph. aureus (Meth-Res) A-15097; assay: MIC, tube dilution, Staphylococcus aureus A15097 (Meth-Res); format: cell-based; settings: overnight 37° C.; for MIC: Staphylococcus aureus
Description: as §1

[3] = tested on: Staph. aureus (Pen-Res) A-9606; assay: MIC, tube dilution, Staphylococcus aureus A9606 (Pen-Res); format: cell-based; settings: Staphylococcus aureus, overnight 37° C.
Description: as §1

Str. faecalis A-20688 = assay: MIC, tube dilution, Streptococcus faecalis A20688; format: cell-based; settings: Enterococcus faecalis, A20688, Str. faecalis A20688; overnight 37° C.; read-out: Minimum Inhibitory Concentration (M.I.C.)
Description: as §1

Proteus vulgaris A21559 = assay: MIC, tube dilution, Proteus vulgaris A21559; format: cell-based; settings: Proteus vulgaris, A21559, Proteus vulgaris A21559; overnight 37° C.; read-out: Minimum Inhibitory Concentration (M.I.C.)
Description: as §1

Pr. morganii A-15153 = assay: MIC, tube dilution, Proteus morganii A15153; format: cell-based; settings: Morganella morganii, A15153, Proteus morganii A15153; overnight 37° C.; read-out: Minimum Inhibitory Concentration (M.I.C.)
Description: as §1

Ser. marcescens A-20019 = assay: MIC, tube dilution, Serratia marcescens A20019; format: cell-based; settings: Serratia marcescens, A20019, Serratia marcescens A20019; overnight 37° C.; read-out: Minimum Inhibitory Concentration (M.I.C.)
Description: as §1

Ent. cloacae A-9659 = assay: MIC, tube dilution, Enterobacter cloacae A9659; format: cell-based; settings: Enterobacter cloacae, A9659, Enterobacter cloacae A9659; overnight 37° C.; read-out: Minimum Inhibitory Concentration (M.I.C.)
Description: as §1

Str. pyogenes A-9604 = assay: MIC, tube dilution, Streptococcus pyogenes A9604; format: cell-based; settings: Streptococcus pyogenes, A9604, Str. pyogenes A9604; overnight 37° C., Nutrient Broth; read-out: Minimum Inhibitory Concentration (M.I.C.)
Description: as §1

E. coli A-20341-1 = assay: MIC, tube dilution, Escherichia coli A20341-1; format: cell-based
Description: as §1

Proteus rettgeri A21203 = assay: MIC, tube dilution, Proteus rettgeri A21203; format: cell-based; settings: Providencia rettgeri, overnight 37° C., read-out: Minimum Inhibitory Concentration (M.I.C.)
Description: as §1

Staph. aureus A-9537 = assay: MIC, tube dilution, Staphylococcus aureus A9537; format: cell-based; settings: Staphylococcus aureus, A9537, Staph. aureus A9537; overnight 37° C., Nutrient Broth; read-out: Minimum Inhibitory Concentration (M.I.C.)
Description: as §1

Str. pneumoniae A-9585 = assay: MIC, tube dilution, Streptococcus pneumoniae A9585; format: cell-based; settings: Streptococcus pneumoniae, A9585, Str. pneumoniae A9585; overnight 37° C., Nutrient Broth; read-out: Minimum Inhibitory Concentration (M.I.C.)
Description: as §1

[4] = tested on: Staph. aureus A-9537 and 50% serum; assay: MIC, tube dilution, Staph. aureus A9537 + 50% serum; format: cell-based, Staphylococcus aureus; settings: Staphylococcus aureus, overnight 37° C., read-out: Minimum Inhibitory Concentration (M.I.C.)
Description: as §1

E. coli A-15119 = assay: MIC, tube dilution, Escherichia coli A15119; format: cell-based; settings: Escherichia coli, A15119, E. coli A15119; overnight 37° C.; read-out: Minimum Inhibitory Concentration (M.I.C.)
Description: as §1

K. pneumoniae A-15130 = assay: MIC, tube dilution, Klebsiella pneumoniae A15130; format: cell-based; settings: Klebsiella pneumoniae, A15130, K. pneumoniae A15130; overnight 37° C.; read-out: Minimum Inhibitory Concentration (M.I.C.)
Description: as §1

Pr. mirabilis A-9900 = assay: MIC, tube dilution, Proteus mirabilis A9900; format: cell-based; settings: Proteus mirabilis, A9900, Proteus mirabilis A9900; overnight 37° C.; read-out: Minimum Inhibitory Concentration (M.I.C.)
Description: as §1

Ent. cloacae A-9656 = assay: MIC, tube dilution, Enterobacter cloacae A9656; format: cell-based; settings: overnight 37° C., read-out: Minimum Inhibitory Concentration (M.I.C.)
Description: as §1

Ps. aeruginosa A-21213 = assay: MIC, tube dilution, Pseudomonas aeruginosa A21213; format: cell-based; settings: Pseudomonas aeruginosa A21213; overnight 37° C.; read-out: Minimum Inhibitory Concentration (M.I.C.)
Description: as §1

Pr. vulgaris A-9716 = assay: MIC, tube dilution, Proteus vulgaris / Proteus mirabilis A9716; format: cell-based, Proteus vulgaris (name changed to Proteus mirabilis); settings: Proteus vulgaris, overnight 37° C.
Description: as §1

Ps. aeruginosa A-9843A = assay: MIC, tube dilution, Pseudomonas aeruginosa A9843A; format: cell-based; settings: Pseudomonas aeruginosa, A9843A, read-out: Minimum Inhibitory Concentration (M.I.C.), Pseudomonas aeruginosa A9843A; overnight 37° C.
Description: as §1

[5] = Staph. aureus A15097 (Meth-Res), read-out: Minimum Inhibitory Concentration (M.I.C.)
[6] = Staph. aureus A9606 (Pen-Res), read-out: Minimum Inhibitory Concentration (M.I.C.)
[7] = A21203, Proteus rettgeri A21203
[8] = read-out: Minimum Inhibitory Concentration (M.I.C.), Staph. aureus A15097 (Meth-Res)
[9] = read-out: Minimum Inhibitory Concentration (M.I.C.), Staph. aureus A9606 (Pen-Res)
[10] = Escherichia coli, A203411; E. coli A20341-1; overnight 37° C.; read-out: Minimum Inhibitory Concentration (M.I.C.)
[11] = A9716, read-out: Minimum Inhibitory Concentration (M.I.C.), Proteus vulgaris / Proteus mirabilis A9716
[12] = Enterobacter cloacae, A9656, Enterobacter cloacae A9656
[13] = A9716, Proteus vulgaris / Proteus mirabilis A9716, read-out: Minimum Inhibitory Concentration (M.I.C.)

SMILES	MIC [1] [µg/mL]	MIC [2, 5] [µg/mL]	MIC [3, 6] [µg/mL]	MIC (Str. faecalis A-20688) [µg/mL]	MIC (Pr. morganii A-15153) [µg/mL]	MIC (Ser. marcescens A-20019) [µg/mL]	MIC (Ent. cloacae A-9659) [µg/mL]	MIC (Str. pyogenes A-9604) [µg/mL]	MIC (Proteus rettgeri A21203; [7]) [µg/mL]	MIC (Staph. aureus A-9537) [µg/mL]	MIC (Str. pneumoniae A-9585) [µg/mL]	MIC [4] [µg/mL]	MIC (E. coli A-15119) [µg/mL]	MIC (K. pneumoniae A-15130) [µg/mL]	MIC (Pr. mirabilis A-9900) [µg/mL]	MIC [2, 8] [µg/mL]	MIC [3, 9] [µg/mL]	MIC (Ps. aeruginosa A-21213) [µg/mL]	MIC (E. coli A-20341-1; [10]) [µg/mL]	MIC (Ps. aeruginosa A-9843A) [µg/mL]	further results
C[C@@H](O)[C@H]1C(=O)N2C(C(=O)O)=C(COCCN)S[C@H]12 (relative stereo) [Example 66, (1'R,5R, 6S and 1'S,5S,6R) 6-(1'-Hydroxyethyl)-2-(2-aminoethoxymethyl)penem-3-carboxylic Acid (isomer B)]	–	–	–	–	–	–	–	–	–	–	–	–	–	–	–	–	–	–	–	–	ED50 (S. aureus A9537; 1.1 × 10^6 organisms): 0.12 mg/kg
NCC1CC1C1=C(C(=O)O)N2C(=O)CC2S1 [Example 79, (1'R,2'S,5S and 1'S,2'R,5S; 1'S,2'R,5R and 1'R,2'S,5S) 2-(trans-2-aminomethyl-1-cyclopropyl)-penem-3-carboxylic acid]	> 63	> 63	0.5 (≈ 2.08 µM)	16 (≈ 66.6 µM)	16 (≈ 66.6 µM)	8 (≈ 33.3 µM)	32 (≈ 133 µM)	0.03 (≈ 0.125 µM)	8 (≈ 33.3 µM)	0.06 (≈ 0.25 µM)	0.016 (≈ 0.0666 µM)	0.25	4 (≈ 16.6 µM)	16 (≈ 66.6 µM)	8 (≈ 33.3 µM)	–	–	–	–	–	Minimum Inhibitory Concentration (M.I.C.) ([2]; Staph. aureus A15097 (Meth-Res)): 125 µg/mL; MIC (Proteus vulgaris A21559): 16 µg/mL (≈ 66.6 µM); MIC (E. coli A-20341-1; Escherichia coli, A203411, E. coli A20341-1; overnight 37° C.; read-out: Minimum Inhibitory Concentration (M.I.C.)): 16 µg/mL (≈ 66.6 µM); ED50 (S. aureus A9537; 8 × 10^5 organisms): 0.8 mg/kg
CCCCC1=C(C(=O)[O-])N2C(=O)C[C@H]2S1.[Na+] [Preparation 24, Sodium 2-butylpenem-3-carboxylate]	> 125	–	–	63	16	32	63	1	–	0.13	0.25	> 63	16	63	2	125	4	125	> 125	125	MIC (Ent. cloacae A-9656; Enterobacter cloacae A9656): 63 µg/mL; MIC (Proteus rettgeri A21203; Proteus rettgeri A21203): 8 µg/mL; MIC (Pr. vulgaris A-9716; [11]): 2 µg/mL
CCOP(=O)(CCC1=C(C(=O)O)N2C(=O)CC2S1)OCC (stereo not shown) [Preparation 25, 2'-(2'-Diethylphosphono-1'-ethyl)penem-3-carboxylic Acid]	4 (≈ 11.9 µM)	–	–	125 (≈ 373 µM)	63 (≈ 188 µM)	63 (≈ 188 µM)	16 (≈ 47.7 µM)	> 125	–	1 (≈ 2.98 µM)	125 (≈ 373 µM)	8	8 (≈ 23.9 µM)	125 (≈ 373 µM)	8 (≈ 23.9 µM)	4 (≈ 11.9 µM)	32 (≈ 95.4 µM)	> 125	2 (≈ 5.96 µM)	125 (≈ 373 µM)	MIC (Ent. cloacae A-9656; Enterobacter cloacae A9656): 16 µg/mL (≈ 47.7 µM); MIC (Proteus rettgeri A21203; Proteus rettgeri A21203): 32 µg/mL (≈ 95.4 µM); MIC (Pr. vulgaris A-9716; [11]): 63 µg/mL (≈ 188 µM)
CSC(SC)C1=C(C(=O)O)N2C(=O)CC2S1 (stereo not shown) [Preparation 26, Sodium 2-(Dimethyldithiomethyl)penem-3-carboxylate]	> 125	–	–	> 125	63	63	63	4	32	4	2	> 63	32	> 125	32	> 125	125	125	> 125	125	MIC (Ent. cloacae A-9656; [12]): 63 µg/mL; MIC (Pr. vulgaris A-9716; [13]): 32 µg/mL
O=C(O)C1=C(c2cscn2)SC2CC(=O)N12 (stereo not shown) [Preparation 27, 2-(4'-Thiazolyl)penem-3-carboxylic Acid]	> 125	8 (≈ 31.5 µM)	8 (≈ 31.5 µM)	4 (≈ 15.7 µM)	32 (≈ 126 µM)	63 (≈ 248 µM)	125 (≈ 492 µM)	0.25 (≈ 0.983 µM)	16 (≈ 62.9 µM)	0.5 (≈ 1.97 µM)	0.13 (≈ 0.511 µM)	> 63	8 (≈ 31.5 µM)	125 (≈ 492 µM)	4 (≈ 15.7 µM)	–	–	125 (≈ 492 µM)	125 (≈ 492 µM)	125 (≈ 492 µM)	MIC (Ent. cloacae A-9656; [12]): 63 µg/mL (≈ 248 µM); MIC (Pr. vulgaris A-9716; [13]): 4 µg/mL (≈ 15.7 µM)
